Consider five molecules from US20110237686A1, “FORMULATIONS AND METHODS OF USE” (Cerulean Pharma Inc, priority 2010, published 2011).

Data set [1] has as its system B16.F10 cells. The data set can be described thus: CellTiter-Glo Luminescent Cell Viability Assay (cytotoxicity of nanoparticles). Format: cell-based, mouse. The conditions noted are these: for IC50: Mus musculus, B16.F10 cells, 24, 48 and 72 hours of incubation tested, time of the IC50 not stated. The protocol: The Cytotoxicity of nanoparticles formed from polymer drug conjugates was evaluated using the following protocol. […] B16.F10 cells, grown to 85-90% confluency in 150 cm^2 flasks (passage<30), were resuspended in media (MEM-alpha, 10% HI-FBS, 1× antibiotic-antimycotic) and added to 96-well opaque-clear bottom plates at a concentration of 1500 cells/well in 200 μL/well. The cells were incubated at 37° C. with 5% CO2 for 24 hours. The following day, serial dilutions of 2×concentrated particles and 2× concentrated free drug were made in 12-well reservoirs with media to specified concentrations. The media in the plates was replaced with 100 μL of fresh media and 100 μL of the corresponding serially diluted drug. Three sets of plates were prepared with duplicate treatments. Following 24, 48 and 72 hours of incubation at 37° C. with 5% CO2, the media in the plates was replaced with 100 μL of fresh media and […] of CTG solution, and then incubated for 5 minutes on a plate shaker at room temperature set to 450 rpm and allowed to rest for 15 minutes. Viable cells were measured by luminescence using a microtiter plate reader. The data was plotted as % viability vs. concentration and standardized to untreated cells.

The subject of data set [2] is B16.F10 murine melanoma model. The data set can be described thus: Efficacy and tolerability of PEGylated docetaxel-5050 PLGA-O-acetyl nanoparticles in B16.F10 murine melanoma model. Format: in vivo, mouse. How it is done:
Refer to table for detailed description of formulations.
Tumor volume was calculated with the following equation: (width×width×length)/2 mm3.

Data set [3] deals with HCT-116 colon xenograft model. The data set can be described thus: In vivo efficacy in HCT-116 colon xenograft model. Also on record: species or system mouse. The note with it: 30 mg/kg IV; male CD-1 nude mice. The protocol:
HCT-116 cells were grown in culture to confluency in McCoy's 5a medium containing 10% FBS and 1% penicillin/streptomycin and then resuspended in McCoy's 5a (passage 4).
The treatments were administered 1V into the tail vein at the respective dose volumes (refer to previous paragraph), beginning on post-implantation Day 13, when the mean tumor volume was 131 mm3.

Data set [4] deals with SK-OV-3 ovarian human xenograft model. The data set can be described thus: In vivo efficacy in SK-OV-3 ovarian human xenograft model. Also on record: species or system mouse. How it is done: SK-OV-3 cells were grown in culture to confluency in RPMI medium containing 10% FBS and 1% penicillin/streptomycin and then resuspended in RPMI (passage 4) for implantation into mice. […]

The test system of data set [5] is MDA-MB-435 melanoma human xenograft model. The data set can be described thus: In vivo efficacy in MDA-MB-435 melanoma human xenograft model. More on the design: species or system mouse. The protocol:
MDA-MB-435 cells were grown in culture to confluency in RPMI medium containing 10% FBS and 1% penicillin/streptomycin and then resuspended in RPMI (passage 4) for implantation into mice. A volume of 0.1 mL containing 4.0×10^6 cells MDA-MB-435 cells were implanted into the mammary gland of female CD-1 nude mice on Day 1.
Background: A xenograft is tissue or cells of one species grown in another, often human tumour cells in immunodeficient mice.

For data set [6], the system named is normal male C57BL/6 non-tumor-bearing mice. The data set can be described thus: Tolerability in normal non-tumor-bearing mice (body weight, CBC, serum chemistry, ataxia, sciatic nerve histology). It counts as in vivo, mouse. The note with it: for Lymphocyte mean / Neutrophil mean / WBC # mean: blood Day 14; for mice developing ataxia / Ataxia (%): n=5/group; for Ataxia (%): intravenous q7d×2, male C57BL/6 mice, to Day 14. The protocol:
Treatments were administered intravenously on a q7d×2 schedule, i.e., two treatments seven days apart (the first treatment was on Day one). The study ended on Day 14, six days after the 2nd treatment. Blood was collected for complete blood count (CBC) and serum chemistry. Leg muscles were collected so that nerve degeneration could be assessed from the sciatic nerve.

Data set [7] in a line: Cryoprotectant screen, sucrose lyophilization cycle. Format: physicochemical. The conditions noted are these: PEGylated nanoparticles A; for Dv90 / PDI / Zave: reconstituted. How it is done:
A cryoprotectant screen was performed as follows.
These conditions are shown below in Table 21.

The nature of data set [8]: Lyophilization using HP-β-CD, freezing with liquid nitrogen and vacuum at room temperature.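 Note: cyclodextrins or their derivatives tested as cryoprotectant during lyophilization of PEGylated nanoparticles, assessing particle size growth attributed to PEG crystallization.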 It counts as physicochemical. The conditions noted are these: PEGylated nanoparticles A, polymer 31.25 mg/mL, cryoprotectant 40 mg/mL (1.28:1 w/w), vacuum at room temperature.
Method: In this example, a new strategy of using cyclodextrins and their derivatives as a cryoprotectant was tested. […] A cryoprotectant is needed to lyophilize liquid formulation that contain PEGylated nanoparticles A (Entries #1 and #2).
Data set [9] in a line: Simple lyophilization of PLGA7K-PVA-PEG2K-30 and PLGA7K-PVA-PEG5K-30 PEGylated nanoparticle formulations. Format: physicochemical. The note with it: 2K PEG PLGA nanoparticles 20 mg/mL, cryoprotectant 20 mg/mL (1:1 w/w). The text has this: The results are similar to that obtained for PEGylated nanoparticles A except for SB-β-CD. The result from SB-β-CD supported the H-bonding mechanism for cryoprotection of PEGylated PLGA nanoparticles since SB-β-CD has less hydroxyl groups than α-CD, γ-CD and HP-β-CD (about ⅓ of —OH groups of β-CD are substituted by sulfobutyl groups).

Data set [10] can be described thus: Lyophilization of stealth liposome (Doxil). It counts as physicochemical. The conditions noted are these: lipids 16 mg/mL, Sucrose lyophilization cycle, post lyophilization.
Where [11] appears, read: q4dq3dx3, 15 mg/kg IV, male C57BL/6 mice.
The mark [12] stands for this setting: q7d schedule, three times once every week, 15 mg/kg.
Where [13] appears, read: polymer 10.42 mg/mL (Doce. 0.50), cryoprotectant 100 mg/mL (9.6:1 w/w).
Where [14] appears, read: polymer 20.83 mg/mL (Doce. 1.00), cryoprotectant 100 mg/mL (4.8:1 w/w).
[15] abbreviates: polymer 26.05 mg/mL (Doce. 1.25), cryoprotectant 100 mg/mL (3.8:1 w/w).
The mark [16] stands for this setting: polymer 31.25 mg/mL (Doce. 1.5), cryoprotectant 100 mg/mL (3.2:1 w/w).
[17] abbreviates: cryoprotectant 100 mg/mL (6.25:1 w/w lipid).
[18] abbreviates: cryoprotectant 150 mg/mL (12.5:1 w/w lipid).
Setting [19] is: cryoprotectant 200 mg/mL (18.5:1 w/w lipid).

For orientation: IC50 means the concentration that inhibits the measured activity by half. Low values mean inhibition by little substance, high ones a need for much substance.

“And” between values parts separate entries of the source, which are not always exact repeats. Equal entries are not always repeated.

`CC(=O)O[C@@]12CO[C@@H]1C[C@H](O)[C@@]1(C)C(=O)[C@H](O)C3=C(C)[C@@H](OC(=O)[C@H](O)[C@@H](NC(=O)OC(C)(C)C)c4ccccc4)C[C@@](O)([C@@H](OC(=O)c4ccccc4)[C@H]21)C3(C)C` [Free docetaxel, docetaxel]: the IC50 in data set [1] was determined as 0.13 µM. For the same molecule, the “Maximum body weight loss” value in data set [2] (q3dq4dx3, 15 mg/kg IV, male C57BL/6 mice, listed as Docetaxel) was 12% and 11%; in [2] (q3dq4dx3, 15 mg/kg IV, male C57BL/6 mice, listed as docetaxel), 12% and 11%; in data set [2] (setting [11]) it was 11%; in data set [2] (q7dx3, 30 mg/kg IV, male C57BL/6 mice), 11%; in data set [2] (q14dx2, 60 mg/kg IV, male C57BL/6 mice, listed as Docetaxel) it was 0%; in [2] (q14dx2, 60 mg/kg IV, male C57BL/6 mice, listed as docetaxel), “did not show any body weight loss”. Moreover, the “Maximum body weight loss” value amounted to 11% in data set [2] (setting [12]); 14% in data set [3]; 13% in data set [4] (30 mg/kg weekly×2); 10% in [5] (15 mg/kg IV Days 21 and 28 (weekly×2)); 14% in [5] (30 mg/kg IV Days 21 and 28 (weekly×2)). In data set [2] (setting [11]), the “Tumor growth delay (TGD)” value is on record as 11 days. Also, the “Tumor growth inhibition (TGI)” value in data set [2] (setting [11]) is on record as 90%. Also, the TGD in [2] (setting [12]) worked out at 11 days. The ataxia result in data set [4] (30 mg/kg weekly×2) is on record as “did not cause ataxia”; in data set [4] (60 mg/kg weekly×2, four days after the second treatment), “observed in all the mice”; in data set [5] (30 mg/kg weekly×2), “did not cause ataxia”; in data set [5] (60 mg/kg weekly×2, listed as docetaxel) it was “developed ataxia”; in data set [5] (60 mg/kg weekly×2, listed as free docetaxel), “Ataxia was observed”. In addition, the body weight loss entry in data set [4] (60 mg/kg IV Days 51 and 58 (weekly×2), female CD-1 nude mice) is “greater than 20%”; in data set [5] (60 mg/kg IV Days 21 and 28 (weekly×2), female CD-1 nude mice) it was “greater than 20%”. Besides, the “body weight above initial on Day 14” value amounted to 3% in [6] (30 mg/kg IV q7d×2) and 2% in data set [6] (45 mg/kg IV q7d×2). The Lymphocyte mean in data set [6] (30 mg/kg IV q7d×2) turned out to be 4350 cells/μL; in data set [6] (45 mg/kg IV q7d×2), 6780 cells/μL; in data set [6] (60 mg/kg IV q7d×2), 5590 cells/μL. The Neutrophil mean in data set [6] (30 mg/kg IV q7d×2) turned out to be 556 cells/μL; in data set [6] (45 mg/kg IV q7d×2), 752 cells/μL; in data set [6] (60 mg/kg IV q7d×2), 470 cells/μL. The “WBC # mean” value in [6] (30 mg/kg IV q7d×2) is on record as 5.1 ×1000 cells/μL; in [6] (45 mg/kg IV q7d×2), 7.8 ×1000 cells/μL; in [6] (60 mg/kg IV q7d×2), 6.2 ×1000 cells/μL. Further, the mice developing ataxia entry in [6] (30 mg/kg IV q7d×2) is “no mice”; in data set [6] (45 mg/kg IV q7d×2, Day 14), “One mouse”; in data set [6] (60 mg/kg IV q7d×2), “Five out of five mice”. Further, the “body weight lost after the second treatment, by the end of the study” value in [6] (60 mg/kg IV q7d×2, Day 14) came to 19%. For the same molecule, the “Ataxia (%)” value in data set [6] (dose 30 mg/kg) was 0%; in data set [6] (dose 45 mg/kg), 20%; in [6] (dose 60 mg/kg), 100%. Moreover, in data set [6] (doses up to 60 mg/kg), the serum chemistry parameters result is recorded as “did not affect any serum chemistry parameter”.

In data set [1], `COc1cccc2c1C(=O)c1c(O)c3c(c(O)c1C2=O)C[C@@](O)(C(=O)CO)C[C@@H]3O[C@H]1C[C@H](N)[C@H](O)[C@H](C)O1` [Free doxorubicin, doxorubicin] gave an IC50 of 14 µM.

As for `CC(=O)O[C@H]1C(=O)[C@@]2(C)[C@H]([C@H](OC(=O)c3ccccc3)[C@]3(O)C[C@H](OC(=O)[C@H](O)[C@@H](NC(=O)c4ccccc4)c4ccccc4)C(C)=C1C3(C)C)[C@]1(OC(C)=O)CO[C@@H]1C[C@@H]2O` [Free paclitaxel, paclitaxel], 7 µM corresponded to half-maximal inhibition in [1] (IC50).

On to `OC[C@H]1O[C@@](CO)(O[C@H]2O[C@H](CO)[C@@H](O)[C@H](O)[C@H]2O)[C@@H](O)[C@@H]1O` [Sucrose, sucrose], for which the “Filtration Loss (0.2 μm PES Filter)” value in data set [7] (setting [13]) worked out at 2%; in data set [7] (setting [14]), 2%; in data set [7] (setting [15]) it was 10%; in data set [7] (polymer 31.25 mg/mL (Doce. 1.50), cryoprotectant 100 mg/mL (3.2:1 w/w)) it was 15%. In addition, the “Lyophilized preparation Appearance” value in [7] (setting [13]), in data set [7] (setting [14]), in data set [7] (setting [15]) and in [7] (setting [16]) was “good” throughout. Further, the “Recon. Solution Appearance” value was “good” in [7] (setting [13]), “good” in data set [7] (setting [14]), “good” in data set [7] (setting [15]) and “slight” in data set [7] (setting [16]). The Dv90 is 120 nm in data set [7] (setting [13]); 120 nm in data set [7] (setting [14]); 155 nm in [8]; 58.5 nm in data set [10] (setting [17]); 533 nm in data set [10] (setting [18]); 1640 nm in [10] (setting [19]). For the same molecule, the PDI is reported as 0.081 in data set [7] (setting [13]); 0.081 in data set [7] (setting [14]); 0.110 in [7] (setting [15]); 0.125 in [7] (setting [16]); 0.207 in [8]; 0.390 in data set [10] (setting [17]). The PDI in data set [10] (setting [18]) worked out at 0.484; in data set [10] (setting [19]), 0.506. The Zave was 90.62 nm in [7] (setting [13]); 91.37 nm in data set [7] (setting [14]); 92.79 nm in data set [7] (setting [15]); 94.72 nm in data set [7] (setting [16]); 197.2 nm in [8]; 142.4 nm in data set [10] (setting [17]). Further, the Zave in data set [10] (setting [18]) was 219.3 nm; in [10] (setting [19]) it was 200.2 nm. In addition, in data set [8], the “Reconstituted Solution appearance” value is given as “precipitation”. The “outcome after lyophilization (in place of particle size)” value in data set [9] was “Precipitated”.

doxorubicin 5050 PLGA amide: the “growth of B16.F10 cells” value in data set [1] (24, 48 and 72 hours of incubation) was “inhibited the growth of B16.F10 cells in a dose and time dependent manner”.
